# Laboratory results from patent US20100137449A1, “SUBSTITUTED 1,3-CYCLOPENTADIONE MULTI-TARGET PROTEIN KINASE MODULATORS OF CANCER, ANGIOGENESIS AND THE INFLAMMATORY PATHWAYS ASSOCIATED THEREWITH” (METAPROTEOMICS, LLC, priority 2007, published 2010).
# Tests used:
# Assay in all cases: KinaseProfiler Assay
# [1] = biological target: IR(h) (Homo sapiens, UniProt P06213)
# [2] = biological target: PASK(h) (Homo sapiens, UniProt Q96RG2)
# [3] = biological target: PAK2(h) (Homo sapiens, UniProt Q13177)
# [4] = biological target: T1, Bmx(h) (Homo sapiens, UniProt P51813)
# T1 sequence (P51813 1-675): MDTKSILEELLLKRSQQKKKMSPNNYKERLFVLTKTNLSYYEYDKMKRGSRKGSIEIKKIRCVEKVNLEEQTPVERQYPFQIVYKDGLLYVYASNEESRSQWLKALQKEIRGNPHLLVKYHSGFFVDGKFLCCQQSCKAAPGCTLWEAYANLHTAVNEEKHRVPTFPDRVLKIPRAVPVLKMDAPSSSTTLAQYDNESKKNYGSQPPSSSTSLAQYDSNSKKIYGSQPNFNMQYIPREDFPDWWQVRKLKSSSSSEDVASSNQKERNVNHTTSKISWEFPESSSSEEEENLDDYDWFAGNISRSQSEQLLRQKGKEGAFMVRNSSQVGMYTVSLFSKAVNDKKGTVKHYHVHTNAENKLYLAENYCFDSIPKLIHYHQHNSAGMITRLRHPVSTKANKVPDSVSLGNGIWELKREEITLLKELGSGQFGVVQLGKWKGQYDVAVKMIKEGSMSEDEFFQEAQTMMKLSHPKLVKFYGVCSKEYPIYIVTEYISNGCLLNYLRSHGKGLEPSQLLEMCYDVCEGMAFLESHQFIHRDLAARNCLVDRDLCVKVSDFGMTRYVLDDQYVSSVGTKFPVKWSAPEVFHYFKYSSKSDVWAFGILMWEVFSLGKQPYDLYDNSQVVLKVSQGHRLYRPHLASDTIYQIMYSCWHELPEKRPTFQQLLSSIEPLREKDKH
# [5] = biological target: MSK1(h) (Homo sapiens, UniProt O75582)
# [6] = biological target: Lyn(h) (Homo sapiens, UniProt P07948)
# [7] = biological target: MAPKAP-K3(h) (Homo sapiens, UniProt Q16644)
# [8] = biological target: T2, Itk(h) (Homo sapiens, UniProt Q08881)
# T2 sequence (Q08881 1-620): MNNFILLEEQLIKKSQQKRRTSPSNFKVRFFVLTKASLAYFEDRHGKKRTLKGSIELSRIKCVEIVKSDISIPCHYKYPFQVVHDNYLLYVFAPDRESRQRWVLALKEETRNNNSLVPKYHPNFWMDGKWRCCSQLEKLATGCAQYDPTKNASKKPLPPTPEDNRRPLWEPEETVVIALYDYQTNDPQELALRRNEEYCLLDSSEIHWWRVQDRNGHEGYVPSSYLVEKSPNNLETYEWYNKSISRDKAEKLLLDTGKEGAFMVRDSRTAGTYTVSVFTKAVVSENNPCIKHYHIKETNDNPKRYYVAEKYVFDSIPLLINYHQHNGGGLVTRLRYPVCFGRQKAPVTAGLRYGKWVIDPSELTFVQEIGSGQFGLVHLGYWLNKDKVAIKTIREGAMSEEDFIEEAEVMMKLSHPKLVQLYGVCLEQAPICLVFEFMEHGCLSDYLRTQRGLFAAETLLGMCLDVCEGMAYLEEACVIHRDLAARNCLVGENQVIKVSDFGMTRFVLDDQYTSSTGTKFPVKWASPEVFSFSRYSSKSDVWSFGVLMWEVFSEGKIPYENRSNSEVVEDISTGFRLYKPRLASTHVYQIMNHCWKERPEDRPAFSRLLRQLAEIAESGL
# [9] = biological target: T3, DRAK1(h) (Homo sapiens, UniProt Q9UEE5)
# T3 sequence (Q9UEE5 1-414): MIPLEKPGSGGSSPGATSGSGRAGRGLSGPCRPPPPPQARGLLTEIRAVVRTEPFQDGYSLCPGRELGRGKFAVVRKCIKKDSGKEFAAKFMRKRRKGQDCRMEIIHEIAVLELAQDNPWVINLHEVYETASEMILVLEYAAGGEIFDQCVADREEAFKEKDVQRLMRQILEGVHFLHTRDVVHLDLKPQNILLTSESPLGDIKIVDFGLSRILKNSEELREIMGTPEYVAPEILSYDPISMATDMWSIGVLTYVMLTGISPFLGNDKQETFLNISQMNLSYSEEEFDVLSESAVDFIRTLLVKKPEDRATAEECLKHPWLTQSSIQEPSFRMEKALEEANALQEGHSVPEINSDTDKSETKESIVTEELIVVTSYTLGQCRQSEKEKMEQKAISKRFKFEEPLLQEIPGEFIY
# [10] = biological target: CaMKI(h) (Homo sapiens, UniProt Q14012)
# Chain of CaMKI(h) (Q14012 whole entry): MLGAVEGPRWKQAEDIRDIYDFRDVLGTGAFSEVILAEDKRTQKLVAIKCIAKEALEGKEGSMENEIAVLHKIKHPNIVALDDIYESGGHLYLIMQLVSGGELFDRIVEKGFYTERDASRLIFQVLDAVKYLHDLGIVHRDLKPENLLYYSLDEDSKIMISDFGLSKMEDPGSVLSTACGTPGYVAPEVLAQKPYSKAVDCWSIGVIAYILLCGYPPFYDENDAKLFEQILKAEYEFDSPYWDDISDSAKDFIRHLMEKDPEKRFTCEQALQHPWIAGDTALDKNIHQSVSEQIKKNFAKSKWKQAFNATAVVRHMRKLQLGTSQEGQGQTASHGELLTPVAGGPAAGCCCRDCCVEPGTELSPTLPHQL
# Chain of Lyn(h) (P07948 whole entry): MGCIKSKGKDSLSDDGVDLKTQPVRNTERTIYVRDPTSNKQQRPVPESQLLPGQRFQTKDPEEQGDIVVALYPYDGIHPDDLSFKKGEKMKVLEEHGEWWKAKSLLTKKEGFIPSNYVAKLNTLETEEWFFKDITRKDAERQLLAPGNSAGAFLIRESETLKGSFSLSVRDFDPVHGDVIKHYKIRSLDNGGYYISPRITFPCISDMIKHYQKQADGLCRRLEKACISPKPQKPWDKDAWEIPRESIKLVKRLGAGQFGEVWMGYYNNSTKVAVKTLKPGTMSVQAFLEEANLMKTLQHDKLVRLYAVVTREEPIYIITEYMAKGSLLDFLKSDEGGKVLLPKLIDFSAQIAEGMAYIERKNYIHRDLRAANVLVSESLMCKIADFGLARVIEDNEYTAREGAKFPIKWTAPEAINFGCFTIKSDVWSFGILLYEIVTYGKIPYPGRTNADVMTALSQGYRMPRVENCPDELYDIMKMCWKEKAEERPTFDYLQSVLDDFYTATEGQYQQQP
# Chain of PAK2(h) (Q13177 whole entry): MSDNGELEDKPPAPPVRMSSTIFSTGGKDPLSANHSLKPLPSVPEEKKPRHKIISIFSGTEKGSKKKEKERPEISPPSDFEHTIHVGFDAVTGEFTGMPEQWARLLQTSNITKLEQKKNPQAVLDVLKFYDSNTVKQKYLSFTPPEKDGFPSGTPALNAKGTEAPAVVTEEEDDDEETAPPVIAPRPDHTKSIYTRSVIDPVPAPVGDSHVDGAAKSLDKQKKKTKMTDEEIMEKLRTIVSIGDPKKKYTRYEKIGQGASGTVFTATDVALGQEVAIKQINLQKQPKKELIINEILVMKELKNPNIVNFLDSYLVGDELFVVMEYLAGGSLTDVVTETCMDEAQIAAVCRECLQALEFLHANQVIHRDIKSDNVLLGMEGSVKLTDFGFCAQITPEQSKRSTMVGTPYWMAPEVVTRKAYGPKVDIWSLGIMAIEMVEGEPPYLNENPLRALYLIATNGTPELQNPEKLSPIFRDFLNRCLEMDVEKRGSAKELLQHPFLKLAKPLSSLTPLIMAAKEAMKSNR
# Chain of IR(h) (P06213 28-1382): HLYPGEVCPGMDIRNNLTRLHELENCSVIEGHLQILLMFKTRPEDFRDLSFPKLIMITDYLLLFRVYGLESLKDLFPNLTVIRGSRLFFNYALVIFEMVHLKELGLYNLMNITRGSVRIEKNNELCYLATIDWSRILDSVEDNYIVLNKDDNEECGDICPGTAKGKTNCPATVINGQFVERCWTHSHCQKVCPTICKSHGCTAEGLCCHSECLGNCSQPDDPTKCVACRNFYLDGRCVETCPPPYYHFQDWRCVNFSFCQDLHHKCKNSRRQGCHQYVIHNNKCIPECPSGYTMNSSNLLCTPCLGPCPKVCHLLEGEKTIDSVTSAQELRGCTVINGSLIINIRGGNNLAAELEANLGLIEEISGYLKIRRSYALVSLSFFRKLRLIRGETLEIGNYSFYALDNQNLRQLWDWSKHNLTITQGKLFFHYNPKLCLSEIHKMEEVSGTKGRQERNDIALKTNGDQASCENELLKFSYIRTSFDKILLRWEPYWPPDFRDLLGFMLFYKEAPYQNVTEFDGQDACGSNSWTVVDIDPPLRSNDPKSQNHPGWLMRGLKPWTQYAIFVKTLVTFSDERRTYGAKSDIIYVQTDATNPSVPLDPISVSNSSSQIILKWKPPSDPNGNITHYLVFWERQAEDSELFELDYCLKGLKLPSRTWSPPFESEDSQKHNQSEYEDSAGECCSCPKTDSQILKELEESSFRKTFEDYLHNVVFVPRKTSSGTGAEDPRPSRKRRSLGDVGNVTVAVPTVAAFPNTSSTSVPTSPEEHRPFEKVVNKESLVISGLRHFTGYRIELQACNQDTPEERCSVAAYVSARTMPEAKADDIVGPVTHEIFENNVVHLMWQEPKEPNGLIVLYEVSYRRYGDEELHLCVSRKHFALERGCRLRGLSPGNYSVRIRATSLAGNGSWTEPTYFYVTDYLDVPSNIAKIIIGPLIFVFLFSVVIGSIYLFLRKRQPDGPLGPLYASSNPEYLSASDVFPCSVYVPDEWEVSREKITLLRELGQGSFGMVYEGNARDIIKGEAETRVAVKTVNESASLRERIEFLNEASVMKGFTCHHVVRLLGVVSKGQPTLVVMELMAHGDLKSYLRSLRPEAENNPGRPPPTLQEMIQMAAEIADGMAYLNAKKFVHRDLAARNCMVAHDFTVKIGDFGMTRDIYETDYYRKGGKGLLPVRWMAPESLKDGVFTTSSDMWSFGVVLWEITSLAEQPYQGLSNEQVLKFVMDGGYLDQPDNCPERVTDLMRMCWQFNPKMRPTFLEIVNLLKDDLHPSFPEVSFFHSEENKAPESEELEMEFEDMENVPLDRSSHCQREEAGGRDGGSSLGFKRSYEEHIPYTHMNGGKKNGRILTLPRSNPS
# Chain of MAPKAP-K3(h) (Q16644 whole entry): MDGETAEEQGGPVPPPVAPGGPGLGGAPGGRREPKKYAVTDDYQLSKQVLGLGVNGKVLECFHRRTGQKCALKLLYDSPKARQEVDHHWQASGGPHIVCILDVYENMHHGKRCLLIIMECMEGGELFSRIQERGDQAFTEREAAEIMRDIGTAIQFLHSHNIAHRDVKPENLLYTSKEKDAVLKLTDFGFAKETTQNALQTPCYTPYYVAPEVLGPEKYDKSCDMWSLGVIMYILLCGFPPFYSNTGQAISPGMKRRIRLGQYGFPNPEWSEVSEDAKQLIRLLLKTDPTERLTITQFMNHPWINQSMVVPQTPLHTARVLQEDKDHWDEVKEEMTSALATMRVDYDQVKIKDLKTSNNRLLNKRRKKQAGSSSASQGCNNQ
# Chain of MSK1(h) (O75582 whole entry): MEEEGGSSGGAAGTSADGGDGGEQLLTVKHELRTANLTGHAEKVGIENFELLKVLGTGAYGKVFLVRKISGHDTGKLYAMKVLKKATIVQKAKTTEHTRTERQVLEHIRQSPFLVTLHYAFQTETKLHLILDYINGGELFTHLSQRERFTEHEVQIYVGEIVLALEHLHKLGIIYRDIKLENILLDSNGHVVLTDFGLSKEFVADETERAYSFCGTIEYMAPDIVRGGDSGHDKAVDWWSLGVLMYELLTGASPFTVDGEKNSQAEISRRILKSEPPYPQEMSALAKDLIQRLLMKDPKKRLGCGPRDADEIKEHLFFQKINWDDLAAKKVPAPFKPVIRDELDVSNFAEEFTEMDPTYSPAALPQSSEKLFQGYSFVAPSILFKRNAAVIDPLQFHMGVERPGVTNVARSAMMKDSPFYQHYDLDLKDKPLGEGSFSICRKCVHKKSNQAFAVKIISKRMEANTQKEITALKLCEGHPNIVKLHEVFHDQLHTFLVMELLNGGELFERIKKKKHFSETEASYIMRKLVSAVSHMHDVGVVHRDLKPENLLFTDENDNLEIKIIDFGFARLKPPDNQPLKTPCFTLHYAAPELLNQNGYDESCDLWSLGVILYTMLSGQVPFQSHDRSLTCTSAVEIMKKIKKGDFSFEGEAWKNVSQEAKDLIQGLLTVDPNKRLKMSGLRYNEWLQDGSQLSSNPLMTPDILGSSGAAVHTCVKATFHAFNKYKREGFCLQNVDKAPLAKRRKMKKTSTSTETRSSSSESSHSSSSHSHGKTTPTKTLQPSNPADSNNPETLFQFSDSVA
smiles,measurement,setting,value
"CC(C)CCC(=O)[C@]1(O)C(O)=C(C(=O)C(C)C)C(=O)[C@H]1CCC(C)C [TH2, tetrahydroiso-cohumulone]",kinase inhibition,[1]; 1 μg/ml,96% of control
same,kinase inhibition,[1]; 5 μg/ml,100% of control
same,kinase inhibition,[1]; 25 μg/ml,80% of control
same,kinase inhibition,[1]; 50 μg/ml,75% of control
same,kinase inhibition,[1]; 100 μg/ml,79% of control
same,kinase inhibition,[2]; 1 μg/ml,71% of control
same,kinase inhibition,[2]; 5 μg/ml,76% of control
same,kinase inhibition,[2]; 25 μg/ml,78% of control
same,kinase inhibition,[2]; 50 μg/ml,80% of control
same,kinase inhibition,[2]; 100 μg/ml,71% of control
same,kinase inhibition,[3]; 1 μg/ml,116% of control
same,kinase inhibition,[3]; 5 μg/ml,110% of control
same,kinase inhibition,[3]; 25 μg/ml,107% of control
same,kinase inhibition,[3]; 50 μg/ml,101% of control
same,kinase inhibition,[3]; 100 μg/ml,96% of control
same,kinase inhibition,[4]; 1 μg/ml,88% of control
same,kinase inhibition,[4]; 5 μg/ml,90% of control
same,kinase inhibition,[4]; 25 μg/ml,89% of control
same,kinase inhibition,[4]; 50 μg/ml,79% of control
same,kinase inhibition,[4]; 100 μg/ml,61% of control
same,kinase inhibition,[5]; 1 μg/ml,98% of control
same,kinase inhibition,[5]; 5 μg/ml,103% of control
same,kinase inhibition,[5]; 25 μg/ml,92% of control
same,kinase inhibition,[5]; 50 μg/ml,64% of control
same,kinase inhibition,[5]; 100 μg/ml,52% of control
same,kinase inhibition,[6]; 1 μg/ml,145% of control
same,kinase inhibition,[6]; 5 μg/ml,146% of control
same,kinase inhibition,[6]; 25 μg/ml,139% of control
same,kinase inhibition,[6]; 50 μg/ml,91% of control
same,kinase inhibition,[6]; 100 μg/ml,68% of control
same,kinase inhibition,[7]; 1 μg/ml,101% of control
same,kinase inhibition,[7]; 5 μg/ml,100% of control
same,kinase inhibition,[7]; 25 μg/ml,109% of control
same,kinase inhibition,[7]; 50 μg/ml,104% of control
same,kinase inhibition,[7]; 100 μg/ml,101% of control
same,kinase inhibition,[8]; 1 μg/ml,101% of control
same,kinase inhibition,[8]; 5 μg/ml,103% of control
same,kinase inhibition,[8]; 25 μg/ml,87% of control
same,kinase inhibition,[8]; 50 μg/ml,82% of control
same,kinase inhibition,[8]; 100 μg/ml,87% of control
same,kinase inhibition,[9]; 1 μg/ml,103% of control
same,kinase inhibition,[9]; 5 μg/ml,106% of control
same,kinase inhibition,[9]; 25 μg/ml,107% of control
same,kinase inhibition,[9]; 50 μg/ml,93% of control
same,kinase inhibition,[9]; 100 μg/ml,79% of control
same,kinase inhibition,[10]; 1 μg/ml,96% of control
same,kinase inhibition,[10]; 5 μg/ml,93% of control
same,kinase inhibition,[10]; 25 μg/ml,73% of control
same,kinase inhibition,[10]; 50 μg/ml,48% of control
same,kinase inhibition,[10]; 100 μg/ml,48% of control
